SMILES strings stand for the structures. Where a name gives a salt, the structure may show the parent alone.

Sequence of PAR4 (Q96RI0 18-385): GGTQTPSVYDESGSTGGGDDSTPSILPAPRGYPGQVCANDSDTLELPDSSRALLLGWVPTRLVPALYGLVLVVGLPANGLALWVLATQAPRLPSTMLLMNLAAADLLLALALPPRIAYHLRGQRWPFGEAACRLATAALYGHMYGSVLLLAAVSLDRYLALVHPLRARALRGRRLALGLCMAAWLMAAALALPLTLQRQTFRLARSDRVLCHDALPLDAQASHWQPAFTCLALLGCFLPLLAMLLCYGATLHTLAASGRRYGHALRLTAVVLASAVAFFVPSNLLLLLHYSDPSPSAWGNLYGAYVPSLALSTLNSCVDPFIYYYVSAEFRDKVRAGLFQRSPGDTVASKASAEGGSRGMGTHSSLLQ

The assay addresses PAR4 (Homo sapiens (Human), UniProt Q96RI0). Nature of the assay: FLIPR assay in PAR4-expressing HEK293 cells (PAR4 antagonist activity, calcium mobilization). It is filed as cell-based. The following applies: H-Ala-Phe(4-F)-Pro-Gly-Trp-Leu-Val-Lys-Asn-Gly-NH2-induced calcium mobilization. A digest of the protocol: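 HEK293 EBNA cells stably expressing human PAR4 (also endogenous PAR1) preincubated 30 min at room temperature with compound in HBSS/10 mM HEPES, 0.67% DMSO final. PAR4 agonist peptide then added and intracellular calcium mobilization monitored by fluorescence.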
Usually EC50 stands for the concentration needed to bring the measured effect to its halfway point. Regarding `COc1cc(OCc2csc(C3(c4ccc(Cl)cc4)CCOCC3)n2)c2cc(-c3cn4nc(OC)sc4n3)oc2c1` [Example 154, 6-(4-((2-(4-(4-Chlorophenyl)tetrahydro-2H-pyran-4-yl)thiazol-4-yl)methoxy)-6-methoxybenzofuran-2-yl)-2-methoxyimidazo[2,1-b][1,3,4]thiadiazole], the EC50 came to 1.1 nM.

For `COc1cc(OCc2csc(C3(c4cccc(Cl)c4)CCOCC3)n2)c2cc(-c3cn4nc(OC)sc4n3)oc2c1` [Example 155, 6-(4-((2-(4-(3-Chlorophenyl)tetrahydro-2H-pyran-4-yl)thiazol-4-yl)methoxy)-6-methoxybenzofuran-2-yl)-2-methoxyimidazo[2,1-b][1,3,4]thiadiazole], the half-maximal effective concentration (EC50) was determined as 0.62 nM.

For the compound `COc1cc(OCc2csc(C3(c4ccccc4F)CCOCC3)n2)c2cc(-c3cn4nc(OC)sc4n3)oc2c1` [Example 156, 6-(4-((2-(4-(2-Fluorophenyl)tetrahydro-2H-pyran-4-yl)thiazol-4-yl)methoxy)-6-methoxybenzofuran-2-yl)-2-methoxyimidazo[2,1-b][1,3,4]thiadiazole], the EC50 was 0.52 nM.

On to `COc1cc(OCc2csc(C3(c4ccc(C)cc4)CCOCC3)n2)c2cc(-c3cn4nc(OC)sc4n3)oc2c1` [Example 157, 2-Methoxy-6-(6-methoxy-4-((2-(4-(p-tolyl)tetrahydro-2H-pyran-4-yl)thiazol-4-yl)methoxy)benzofuran-2-yl)imidazo[2,1-b][1,3,4]thiadiazole], for which the EC50 came out at 3.6 nM.

As for `COc1cccc(C2(c3nc(COc4cc(OC)cc5oc(-c6cn7nc(OC)sc7n6)cc45)cs3)CCOCC2)c1` [Example 158, 2-Methoxy-6-(6-methoxy-4-((2-(4-(3-methoxyphenyl)tetrahydro-2H-pyran-4-yl)thiazol-4-yl)methoxy)benzofuran-2-yl)imidazo[2,1-b][1,3,4]thiadiazole], the concentration giving a half-maximal response (EC50) worked out at 0.95 nM.

For `COc1ccc(C2(c3nc(COc4cc(OC)cc5oc(-c6cn7nc(OC)sc7n6)cc45)cs3)CCOCC2)cc1` [Example 159, 2-Methoxy-6-(6-methoxy-4-((2-(4-(4-methoxyphenyl)tetrahydro-2H-pyran-4-yl)thiazol-4-yl)methoxy)benzofuran-2-yl)imidazo[2,1-b][1,3,4]thiadiazole], the concentration for a half-maximal effect (EC50) was 0.41 nM.

Regarding `COC(=O)c1ccc(C2(c3nc(COc4cc(OC)cc5oc(-c6cn7nc(OC)sc7n6)cc45)cs3)CCOCC2)cc1` [Example 160, Methyl 4-(4-(4-(((6-methoxy-2-(2-methoxyimidazo[2,1-b][1,3,4]thiadiazol-6-yl)benzofuran-4-yl)oxy)methyl)thiazol-2-yl)tetrahydro-2H-pyran-4-yl)benzoate], the EC50 is 0.5 nM.

As for `COc1cc(OCc2csc(C3(c4ccccc4)CCOCC3)n2)c2cc(-c3cn4nc(OC)sc4n3)oc2c1` [Example 162, 2-Methoxy-6-(6-methoxy-4-((2-(4-phenyltetrahydro-2H-pyran-4-yl)thiazol-4-yl)methoxy)benzofuran-2-yl)imidazo[2,1-b][1,3,4]thiadiazole], the EC50 worked out at 0.67 nM.

`COc1cc(OCc2csc(C3(c4ccc(Cl)cc4)CCOC3)n2)c2cc(-c3cn4nc(OC)sc4n3)oc2c1` (stereo not shown) [Example 163, 6-(4-((2-(3-(4-Chlorophenyl)tetrahydrofuran-3-yl)thiazol-4-yl)methoxy)-6-methoxybenzofuran-2-yl)-2-methoxyimidazo[2,1-b][1,3,4]thiadiazole]: the EC50 is 0.82 nM.

Regarding `COc1cc(OCc2csc(C3(c4ccc(C)cc4)CCOC3)n2)c2cc(-c3cn4nc(OC)sc4n3)oc2c1` (stereo not shown) [Example 164, 2-Methoxy-6-(6-methoxy-4-((2-(3-(p-tolyl)tetrahydrofuran-3-yl)thiazol-4-yl)methoxy)benzofuran-2-yl)imidazo[2,1-b][1,3,4]thiadiazole], the EC50 worked out at 1.3 nM.

As for `COc1cc(OCc2csc(C3(c4cccc(Cl)c4)CCOC3)n2)c2cc(-c3cn4nc(OC)sc4n3)oc2c1` (stereo not shown) [Example 165, 6-(4-((2-(3-(3-Chlorophenyl)tetrahydrofuran-3-yl)thiazol-4-yl)methoxy)-6-methoxybenzofuran-2-yl)-2-methoxyimidazo[2,1-b][1,3,4]thiadiazole], the concentration giving a half-maximal response (EC50) stood at 1.1 nM.

In the case of `COc1cc(OCc2csc(C3(c4ccccc4F)CCOC3)n2)c2cc(-c3cn4nc(OC)sc4n3)oc2c1` (stereo not shown) [Example 166, 6-(4-((2-(3-(2-Fluorophenyl)tetrahydrofuran-3-yl)thiazol-4-yl)methoxy)-6-methoxybenzofuran-2-yl)-2-methoxyimidazo[2,1-b][1,3,4]thiadiazole], the concentration giving a half-maximal response (EC50) was 0.97 nM.

Take `COc1cc(OCc2csc(C3(C)CCOCC3)n2)c2cc(-c3cn4nc(OC)sc4n3)oc2c1` [Example 167, 2-Methoxy-6-(6-methoxy-4-((2-(4-methyltetrahydro-2H-pyran-4-yl)thiazol-4-yl)methoxy)benzofuran-2-yl)imidazo[2,1-b][1,3,4]thiadiazole]: the 50% effective concentration (EC50) came to 0.26 nM.

As for `COc1cc(OCc2csc(C3CCOc4ccccc43)n2)c2cc(-c3cn4nc(OC)sc4n3)oc2c1` (stereo not shown) [Example 168, 6-(4-((2-(Chroman-4-yl)thiazol-4-yl)methoxy)-6-methoxybenzofuran-2-yl)-2-methoxyimidazo[2,1-b][1,3,4]thiadiazole], the EC50 turned out to be 0.28 nM.

As for `COc1cc(OCc2csc(C3=CCOc4ccccc43)n2)c2cc(-c3cn4nc(OC)sc4n3)oc2c1` [Example 169, 6-(4-((2-(2H-Chromen-4-yl)thiazol-4-yl)methoxy)-6-methoxybenzofuran-2-yl)-2-methoxyimidazo[2,1-b][1,3,4]thiadiazole], the EC50 came to 1.3 nM.

As to `COc1cc(OCc2csc(C3(N[S@+]([O-])C(C)(C)C)CCOCC3)n2)c2cc(-c3cn4nc(OC)sc4n3)oc2c1` [Example 170, (R)-N-(4-(4-(((6-Methoxy-2-(2-methoxyimidazo[2,1-b][1,3,4]thiadiazol-6-yl)benzofuran-4-yl)oxy)methyl)thiazol-2-yl)tetrahydro-2H-pyran-4-yl)-2-methylpropane-2-sulfinamide], the EC50 came out at 1.7 nM.

Take `COc1cc(OCc2csc(C3(NS(=O)(=O)C(C)(C)C)CCOCC3)n2)c2cc(-c3cn4nc(OC)sc4n3)oc2c1` [Example 171, N-(4-(4-(((6-Methoxy-2-(2-methoxyimidazo[2,1-b][1,3,4]thiadiazol-6-yl)benzofuran-4-yl)oxy)methyl)thiazol-2-yl)tetrahydro-2H-pyran-4-yl)-2-methylpropane-2-sulfonamide]: the EC50 came to 0.27 nM.

`COc1cc(OCc2csc(C3(N)CCOCC3)n2)c2cc(-c3cn4nc(OC)sc4n3)oc2c1` [Example 172, 4-(4-(((6-Methoxy-2-(2-methoxyimidazo[2,1-b][1,3,4]thiadiazol-6-yl)benzofuran-4-yl)oxy)methyl)thiazol-2-yl)tetrahydro-2H-pyran-4-amine, HCl]: the EC50 was 0.94 nM.

Consider `COc1cc(OCc2csc(C3(NC(=O)CNC(=O)OC(C)(C)C)CCOCC3)n2)c2cc(-c3cn4nc(OC)sc4n3)oc2c1` [Example 173, tert-Butyl (2-((4-(4-(((6-methoxy-2-(2-methoxyimidazo-[2,1-b][1,3,4]thiadiazol-6-yl)benzofuran-4-yl)oxy)methyl)-thiazol-2-yl)tetrahydro-2H-pyran-4-yl)amino)-2-oxoethyl)carbamate], for which the concentration giving a half-maximal response (EC50) stood at 0.67 nM.

These data come from patent US9688695B2, “Imidazothiadiazole and imidazopyrazine derivatives as protease activated receptor 4 (PAR4) inhibitors for treating platelet aggregation” (BRISTOL-MYERS SQUIBB COMPANY, priority 2012, dated 2017).
